Peptide text beside a SMILES is read from it.
Biological target: T1, H2-K^d (Mus musculus, UniProt P01902)
T1 construct: expressed in transfected cells; host or cells: RMA/S lymphoma cell line expressing H2-K^d
T1 sequence (P01902 22-368): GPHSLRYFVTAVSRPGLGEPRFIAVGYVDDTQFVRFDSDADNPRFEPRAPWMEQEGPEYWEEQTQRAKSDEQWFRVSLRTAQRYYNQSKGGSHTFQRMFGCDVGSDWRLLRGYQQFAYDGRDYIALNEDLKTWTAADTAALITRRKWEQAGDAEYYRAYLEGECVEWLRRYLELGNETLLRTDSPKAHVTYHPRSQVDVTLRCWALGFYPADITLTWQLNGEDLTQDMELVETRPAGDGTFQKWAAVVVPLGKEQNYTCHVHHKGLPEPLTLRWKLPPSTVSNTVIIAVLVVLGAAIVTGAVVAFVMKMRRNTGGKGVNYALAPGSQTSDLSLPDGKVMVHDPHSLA
T1 sequence (P01887 21-119 partner): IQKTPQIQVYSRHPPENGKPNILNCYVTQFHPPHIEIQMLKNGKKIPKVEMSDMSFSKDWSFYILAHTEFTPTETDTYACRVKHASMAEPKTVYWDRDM
Assay: MHC binding assay (RMA/S cells expressing H2-K^d)
Parameters: species or system murine
Settings: H2-K^d stabilization, read-out: apparent Kd
Protocol: RMA/S cells expressing H2-K^d were used to test MHC binding as described.
The affinity of SYQKSINNI for H2-K^d was determined using an RMA/S lymphoma cell line expressing H2-Kd as previously described.
Fig 4 The PyMDH epitope binds to murine H2-K^d. RMA/S cells expressing H2-K^d were incubated with peptides for PyCSP (squares), PyMDH (circles) or non-specific peptide. PyCSP and PyMDH peptides stabilized H2-K^d, indicative of specific MHC binding. Error bars indicate the 95% confidence interval.

| Compound | Kd [nM] |
| --- | --- |
| CC[C@H](C)[C@H](NC(=O)[C@H](CCC(N)=O)NC(=O)[C@H](CCC(=O)O)NC(=O)[C@H](C)NC(=O)[C@H](CO)NC(=O)[C@@H]1CCCN1C(=O)[C@@H](NC(=O)[C@H](Cc1ccc(O)cc1)NC(=O)[C@@H](N)CO)C(C)C)C(=O)O [PyCSP peptide] (H-SYVPSAEQI-OH) | 9.6 |
| CC[C@H](C)[C@H](NC(=O)[C@H](CC(N)=O)NC(=O)[C@H](CC(N)=O)NC(=O)[C@@H](NC(=O)[C@H](CO)NC(=O)[C@H](CCCCN)NC(=O)[C@H](CCC(N)=O)NC(=O)[C@H](Cc1ccc(O)cc1)NC(=O)[C@@H](N)CO)[C@@H](C)CC)C(=O)O [PyMDH peptide] (H-SYQKSINNI-OH) | 11.6 |
